Data as given in PubChem BioAssay (NCI).
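Assay format: 96-well plates, 48-hour exposure. GI50 is the concentration that inhibits growth by half. TGI is the concentration that stops growth completely.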

Columns and labels:
Assay in all cases: inhibition of tumour cell growth, NCI panel, 48 h
ACHN renal = test system: ACHN renal
IGROV1 ovarian = test system: IGROV1 ovarian
M14 melanoma = test system: M14 melanoma
NCI-H226 lung = test system: NCI-H226 lung
NCI-H460 lung = test system: NCI-H460 lung
RXF 393 renal = test system: RXF 393 renal
SW-620 colon = test system: SW-620 colon
HS 578T breast = test system: HS 578T breast
MDA-MB-231 breast = test system: MDA-MB-231 breast
PC-3 prostate = test system: PC-3 prostate

SMILES | TGI (ACHN renal) [µM] | TGI (IGROV1 ovarian) [µM] | TGI (M14 melanoma) [µM] | TGI (NCI-H226 lung) [µM] | TGI (NCI-H460 lung) [µM] | TGI (RXF 393 renal) [µM] | TGI (SW-620 colon) [µM] | GI50 (ACHN renal) [µM] | GI50 (HS 578T breast) [µM] | TGI (HS 578T breast) [µM] | GI50 (IGROV1 ovarian) [µM] | GI50 (M14 melanoma) [µM] | GI50 (MDA-MB-231 breast) [µM] | TGI (MDA-MB-231 breast) [µM] | GI50 (NCI-H226 lung) [µM] | GI50 (NCI-H460 lung) [µM] | GI50 (PC-3 prostate) [µM] | TGI (PC-3 prostate) [µM] | GI50 (RXF 393 renal) [µM] | GI50 (SW-620 colon) [µM]
CC1C[C@H](C)CC(C(O)CC2CC(=O)N(Cc3ccccc3)C(=O)C2)C1O (some centres undefined) | > 100 | > 100 | > 100 | > 100 | > 100 | > 100 | > 100 | – | – | – | – | – | – | – | – | – | – | – | – | –
CC(/C(=N\Nc1ccccc1)c1ccc(O)cc1)C1C(=O)Oc2ccccc21 (centres undefined) | > 100 | > 100 | > 100 | – | > 100 | > 100 | > 100 | – | – | – | – | – | – | – | – | – | – | – | – | –
NS(=O)(=O)c1ccc(NC2=CC(=O)C(=O)c3ccccc32)cc1 | > 100 | > 100 | > 100 | > 100 | > 100 | > 100 | > 100 | – | – | – | – | – | – | – | – | – | – | – | – | –
N#Cc1c2c(c(N=P(c3ccccc3)(c3ccccc3)c3ccccc3)n3c1nc1ccccc13)CCCC2 | 67.5 | > 100 | > 100 | 22.4 | 56.5 | 98.5 | > 100 | – | – | – | – | – | – | – | – | – | – | – | – | –
COc1ccc2c(c1)[n+](=O)c(C(=O)c1ccco1)c(C(F)(F)F)n2[O-] | 2.53 | 20.4 | 6.72 | 17.6 | 15.6 | 12 | 34.5 | 0.514 | 3.08 | 8.86 | 2.57 | 2 | 3.01 | 13.2 | 3.04 | 1.72 | 4.64 | > 100 | 1.67 | 3.53
Cc1ccc(S(=O)(=O)N2CCSCCN(S(=O)(=O)c3ccc(C)cc3)CCN(S(=O)(=O)c3ccc(C)cc3)CC2)cc1 | – | > 100 | > 100 | > 100 | > 100 | > 100 | > 100 | – | – | > 100 | – | – | – | 59.5 | – | – | – | – | – | –
CN(Cc1cc(Br)cc(Br)c1O)Cc1cc(Br)cc(Br)c1O | 18.9 | 18.1 | 15.6 | 19.8 | 13.2 | 15.3 | 16.9 | 1.63 | 5.24 | 47.7 | 1.56 | 1.69 | 3.26 | 19.6 | 4.75 | 0.557 | 4.37 | 25 | 2.65 | 2.33
COc1ccc(C2CC(c3cc(C)ccc3O)=NC(N)=N2)cc1 (centres undefined) | > 100 | > 100 | > 100 | > 100 | > 100 | > 100 | > 100 | – | – | – | – | – | – | – | – | – | – | – | – | –
COc1ccc(C(=O)c2cc(OC)c(OC)c(OC)c2)cc1/C=C/C(=O)c1ccc(OC)c(OC)c1 | > 100 | > 100 | > 100 | – | > 100 | > 100 | > 100 | 1.32 | 11.1 | > 100 | 3.08 | 2.79 | 0.659 | > 100 | – | 2.43 | 5.9 | > 100 | > 100 | 0.321
C[C@H](Nc1ncnc2nc[nH]c12)c1cc2ccc(F)cc2nc1-c1ccccn1 | > 100 | > 100 | > 100 | > 100 | > 100 | 59.2 | > 100 | 47.9 | 18.7 | > 100 | 20.4 | > 100 | > 80 | > 100 | > 89.4 | > 100 | 25 | > 100 | 4.26 | > 100
Cc1ccc2ncnc(N(CC(C)C)CC(C)C)c2c1 | 31.5 | > 100 | 30.8 | 34.8 | 49 | 27.7 | – | 15.3 | 17.4 | 44.3 | 23.4 | 14.8 | – | – | 15.2 | 14.5 | 11 | 27.8 | 11.5 | –
CC1SC2=NC3=C(c4ccccc4C3=O)C(c3ccc(Cl)cc3)N2C1=O (centres undefined) | > 100 | > 100 | > 100 | > 100 | > 100 | – | > 100 | – | – | – | – | – | – | – | – | – | – | – | – | –
C=C(C)[C@@H]1CC[C@]2(C(=O)O)CC[C@]3(C)[C@H](CC[C@@H]4[C@@]5(C)C[C@@H](CC#Cc6ccc(C(F)(F)F)cc6)[C@H](O)C(C)(C)[C@@H]5CC[C@]43C)[C@@H]12 | > 100 | > 100 | – | > 100 | > 100 | 5.49 | – | 4.04 | 3.88 | > 100 | 3.56 | – | – | – | 2.91 | 3.38 | – | – | 2.39 | –
Cc1cccc2c1N(C(=O)/C=C\C(=O)O)C(c1c(C)[nH]c3ccccc13)C2 (centres undefined) | > 100 | > 10 | > 100 | > 100 | > 100 | – | 79.3 | – | – | – | – | – | – | – | – | – | – | – | – | –
O=C1CCC2CC(C(=O)c3ccccc3)CCC2CN1 (centres undefined) (tested in a mixture with another compound) | > 100 | > 100 | > 100 | > 100 | > 100 | > 100 | > 100 | – | – | – | – | – | – | – | – | – | – | – | – | –
CCOC(=O)C1C2CCC(C2)C1(CCl)C(=O)OCC (centres undefined) | > 100 | > 100 | > 100 | > 100 | > 100 | – | > 100 | – | – | – | – | – | – | – | – | – | – | – | – | –
CCOC(=O)CSC(=O)NCCCl | > 100 | > 100 | > 100 | > 100 | > 100 | > 100 | > 100 | – | – | – | – | – | – | – | – | – | – | – | – | –
O=C(CN(/C=C/C(=O)C(F)(F)F)c1ccc(Cl)cc1)c1ccccc1 | 28.9 | 24.3 | 22.9 | – | > 100 | 43.5 | 62.1 | 13.7 | 24.3 | 68.1 | 0.303 | 10.6 | 15.8 | 33.8 | – | 52.9 | 17 | 35.3 | 21.7 | 14.6
COC(=O)C(CC(C)C)NC(=O)NC12CC3CC(CC(F)(C3)C1)C2 (centres undefined) | > 100 | > 100 | > 100 | – | > 100 | > 100 | > 100 | – | – | – | – | – | – | – | – | – | – | – | – | –
O=C1c2ccccc2C(=O)N1CCN(CCN1C(=O)c2ccccc2C1=O)Cn1cccn1 | > 100 | – | > 100 | – | > 100 | > 100 | > 100 | – | – | – | – | – | – | – | – | – | – | – | – | –
